PubChem BioAssay AID248 (DTP/NCI, 2004)
Inconclusive results and toxic doses are left out. Cut-off read from the data, not from the text of the source: active = T/C of 150% or more; inactive = T/C below 125%.

Tested on: L1210 leukemia ip in BDF1 mice, survival T/C
Experiment: NCI In Vivo Anticancer Drug Screen. Data for tumor model L1210 Leukemia (intraperitoneal) in B6D2F1 (BDF1) mice
Details: endpoint: mean survival time, higher = longer survival
Procedure, shortened: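 In this screen, tumor-bearing mice given compound are compared to those given vehicle, and their survival values are reported as a treated-to-control quotient.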

[1] = dose: 100.0 mg/kg/injection, schedule: Q04DX003 (ip), vehicle: saline with Tween-80
[2] = dose: 200.0 mg/kg/injection, schedule: Q04DX003 (ip), vehicle: saline with Tween-80
[3] = dose: 400.0 mg/kg/injection, schedule: Q04DX003 (ip), vehicle: saline with Tween-80
[4] = dose: 100.0 mg/kg/injection, schedule: Q01DX009 (ip), vehicle: Klucel (hydroxypropylcellulose) (HPC)
[5] = dose: 100.0 mg/kg/injection, schedule: Q04DX003 (ip), vehicle: Klucel (hydroxypropylcellulose) (HPC)
[6] = dose: 200.0 mg/kg/injection, schedule: Q01DX009 (ip), vehicle: Klucel (hydroxypropylcellulose) (HPC)
[7] = dose: 200.0 mg/kg/injection, schedule: Q04DX003 (ip), vehicle: Klucel (hydroxypropylcellulose) (HPC)
[8] = dose: 400.0 mg/kg/injection, schedule: Q01DX009 (ip), vehicle: Klucel (hydroxypropylcellulose) (HPC)
[9] = dose: 400.0 mg/kg/injection, schedule: Q04DX003 (ip), vehicle: Klucel (hydroxypropylcellulose) (HPC)
[10] = dose: 100.0 mg/kg/injection, schedule: Q04DX003 (ip), vehicle: saline
[11] = dose: 200.0 mg/kg/injection, schedule: Q04DX003 (ip), vehicle: saline
[12] = dose: 400.0 mg/kg/injection, schedule: Q04DX003 (ip), vehicle: saline
[13] = dose: 100.0 mg/kg/injection, schedule: Q01DX001 (ip), vehicle: saline
[14] = dose: 200.0 mg/kg/injection, schedule: Q01DX001 (ip), vehicle: saline
[15] = dose: 400.0 mg/kg/injection, schedule: Q01DX001 (ip), vehicle: saline
[16] = dose: 50.0 mg/kg/injection, schedule: Q01DX001 (ip), vehicle: saline

Measured: T/C

Clc1ccccc1Br
inactive: dose: 100.0 mg/kg/injection, schedule: Q01DX007 (ip), vehicle: saline with Tween-80 104 % of control | [1] 95 % of control | dose: 200.0 mg/kg/injection, schedule: Q01DX007 (ip), vehicle: saline with Tween-80 98 % of control | [2] 96 % of control | dose: 400.0 mg/kg/injection, schedule: Q01DX007 (ip), vehicle: saline with Tween-80 96 % of control | [3] 98 % of control

Cc1cc([N+](=O)[O-])ccc1NC(=O)Nc1cccc(F)c1
inactive: [4] 96 % of control | dose: 100.0 mg/kg/injection, schedule: Q04DX002 (ip), vehicle: Klucel (hydroxypropylcellulose) (HPC) 90 % of control | [5] 95 % of control | [6] 94 % of control | dose: 200.0 mg/kg/injection, schedule: Q04DX002 (ip), vehicle: Klucel (hydroxypropylcellulose) (HPC) 88 % of control | [7] 95 % of control | [8] 88 % of control | dose: 400.0 mg/kg/injection, schedule: Q04DX002 (ip), vehicle: Klucel (hydroxypropylcellulose) (HPC) 88 % of control | [9] 95 % of control

COc1ccc(C2OC23CC(C)(C)c2ccccc2C3=O)cc1 (stereo unspecified)
inactive: [1] 93 % of control | [2] 89 % of control | [3] 94 % of control

N#CCCN(CCCN1CCOCC1)C(=S)Nc1cccc(C(F)(F)F)c1
inactive: dose: 100.0 mg/kg/injection, schedule: Q04DX002 (ip), vehicle: saline with Tween-80 92 % of control | dose: 400.0 mg/kg/injection, schedule: Q04DX002 (ip), vehicle: saline with Tween-80 100 % of control

C=NN1CCOC1=O
inactive: dose: 100.0 mg/kg/injection, schedule: Q04DX002 (ip), vehicle: saline 106 % of control | dose: 200.0 mg/kg/injection, schedule: Q04DX002 (ip), vehicle: saline 91 % of control | dose: 400.0 mg/kg/injection, schedule: Q04DX002 (ip), vehicle: saline 111 % of control

O=C(O)C(CSCc1ccccc1)NSc1ccccc1[N+](=O)[O-] (stereo unspecified)
inactive: dose: 100.0 mg/kg/injection, schedule: Q01DX001 (ip), vehicle: Klucel (hydroxypropylcellulose) (HPC) 105 % of control | [10] 97 % of control | dose: 200.0 mg/kg/injection, schedule: Q01DX001 (ip), vehicle: Klucel (hydroxypropylcellulose) (HPC) 105 % of control | [11] 95 % of control | dose: 400.0 mg/kg/injection, schedule: Q01DX001 (ip), vehicle: Klucel (hydroxypropylcellulose) (HPC) 101 % of control | [12] 106 % of control

Cc1cc(C)c2nc(N)sc2c1
inactive: [1] 94 % of control

S=P(NCCS)(N1CC1)N1CC1
inactive: [13] 106 % of control | [14] 101 % of control | [15] 101 % of control

COP1(=O)OC(C)C(C)O1 (stereo unspecified)
inactive: [13] 98 % of control | [14] 102 % of control | [15] 93 % of control

CC(=O)Nc1cccc(Cl)c1C
inactive: dose: 100.0 mg/kg/injection, schedule: Q01DX009 (ip), vehicle: saline sonified 97 % of control | dose: 100.0 mg/kg/injection, schedule: Q04DX003 (ip), vehicle: saline sonified 95 % of control | dose: 200.0 mg/kg/injection, schedule: Q01DX009 (ip), vehicle: saline sonified 91 % of control | dose: 200.0 mg/kg/injection, schedule: Q04DX003 (ip), vehicle: saline sonified 95 % of control | dose: 400.0 mg/kg/injection, schedule: Q01DX009 (ip), vehicle: saline sonified 91 % of control | dose: 400.0 mg/kg/injection, schedule: Q04DX003 (ip), vehicle: saline sonified 97 % of control

CC1(C)C(=NN)C(C)(C)C1O (stereo unspecified)
inactive: dose: 75.0 mg/kg/injection, schedule: Q01DX001 (ip), vehicle: saline 101 % of control | dose: 150.0 mg/kg/injection, schedule: Q01DX001 (ip), vehicle: saline 104 % of control | dose: 300.0 mg/kg/injection, schedule: Q01DX001 (ip), vehicle: saline 96 % of control

N#C/C(=C/c1cc(Cl)ccc1O)C(N)=O
inactive: [4] 102 % of control | [6] 95 % of control | [8] 100 % of control

N#CC(=C1c2ccccc2-c2ccccc21)c1ccccc1
inactive: [5] 100 % of control | [7] 105 % of control | [9] 98 % of control

CCc1ccc(/C=C\c2ccc(O)c(O)c2)[n+](C)c1
inactive: dose: 15.0 mg/kg/injection, schedule: Q01DX001 (ip), vehicle: saline 87 % of control | dose: 30.0 mg/kg/injection, schedule: Q01DX001 (ip), vehicle: saline 89 % of control

O=C(O)C12CCC(CO)(CC1)CC2
inactive: dose: 50.0 mg/kg/injection, schedule: Q01DX001 (ip), vehicle: saline with Tween-80 103 % of control | dose: 100.0 mg/kg/injection, schedule: Q01DX001 (ip), vehicle: saline with Tween-80 100 % of control | dose: 200.0 mg/kg/injection, schedule: Q01DX001 (ip), vehicle: saline with Tween-80 92 % of control

Cc1ccc(C(CCC#N)OC(C)C)cc1 (stereo unspecified)
inactive: [4] 95 % of control | [5] 96 % of control | [6] 92 % of control | [7] 101 % of control | [8] 97 % of control | [9] 92 % of control

CCOC(=O)C1c2cccc(O)c2C=CN1C(C)=O (stereo unspecified)
inactive: [10] 101 % of control | [11] 97 % of control | [12] 104 % of control

c1ccc2nc3c(cc2c1)[nH]c1ccccc13
inactive: dose: 100.0 mg/kg/injection, schedule: Q04DX002 (ip), vehicle: gum acacia 92 % of control | dose: 200.0 mg/kg/injection, schedule: Q04DX002 (ip), vehicle: gum acacia 106 % of control | dose: 400.0 mg/kg/injection, schedule: Q04DX002 (ip), vehicle: gum acacia 103 % of control

O=c1c(=NNc2ccccc2)c(=O)c2ccccc12
inactive: [16] 94 % of control | [13] 94 % of control | [14] 88 % of control | [15] 102 % of control

C/C=C/Sc1ccccc1C(=O)O
inactive: dose: 50.0 mg/kg/injection, schedule: Q01DX001 (ip), vehicle: carboxymethylcellulose (CMC) 104 % of control | dose: 100.0 mg/kg/injection, schedule: Q01DX001 (ip), vehicle: carboxymethylcellulose (CMC) 100 % of control | dose: 200.0 mg/kg/injection, schedule: Q01DX001 (ip), vehicle: carboxymethylcellulose (CMC) 104 % of control

OCCN(Cc1ccccc1)Cc1ccccc1
inactive: [1] 101 % of control | [2] 95 % of control

OC1C#CCCCCC(O)C#CCCCC1 (stereo unspecified)
inactive: dose: 18.75 mg/kg/injection, schedule: Q01DX009 (ip), vehicle: saline 97 % of control | dose: 37.5 mg/kg/injection, schedule: Q01DX009 (ip), vehicle: saline 95 % of control | dose: 37.5 mg/kg/injection, schedule: Q04DX003 (ip), vehicle: acetone 100 % of control | dose: 75.0 mg/kg/injection, schedule: Q01DX009 (ip), vehicle: saline 97 % of control | dose: 75.0 mg/kg/injection, schedule: Q04DX003 (ip), vehicle: acetone 97 % of control | dose: 150.0 mg/kg/injection, schedule: Q04DX003 (ip), vehicle: acetone 92 % of control

Cc1c(Cl)cccc1NC(=O)Nc1ccccc1Cl
inactive: [4] 104 % of control | [5] 92 % of control | [6] 103 % of control | [7] 91 % of control | [8] 100 % of control | [9] 92 % of control

CCCN(CCC)C(=O)CCN1CC1
inactive: dose: 5.0 mg/kg/injection, schedule: Q01DX001 (ip), vehicle: carboxymethylcellulose (CMC) 97 % of control | dose: 10.0 mg/kg/injection, schedule: Q01DX001 (ip), vehicle: carboxymethylcellulose (CMC) 100 % of control | dose: 20.0 mg/kg/injection, schedule: Q01DX001 (ip), vehicle: carboxymethylcellulose (CMC) 88 % of control | dose: 40.0 mg/kg/injection, schedule: Q01DX001 (ip), vehicle: carboxymethylcellulose (CMC) 103 % of control

CNc1nc2c(N)ncnc2n1C1OC(CO)C(O)C1O (stereo unspecified)
inactive: dose: 12.5 mg/kg/injection, schedule: Q04DX002 (ip), vehicle: saline 100 % of control | dose: 25.0 mg/kg/injection, schedule: Q04DX002 (ip), vehicle: saline 103 % of control | dose: 25.0 mg/kg/injection, schedule: Q04DX002 (ip), vehicle: suspension in saline 104 % of control | [16] 104 % of control | dose: 50.0 mg/kg/injection, schedule: Q04DX002 (ip), vehicle: saline 113 % of control | dose: 50.0 mg/kg/injection, schedule: Q04DX002 (ip), vehicle: suspension in saline 106 % of control | [13] 110 % of control | dose: 100.0 mg/kg/injection, schedule: Q04DX002 (ip), vehicle: suspension in saline 106 % of control
